Publication PMC4867230 (DNA repair, 2016)

Tests used:
Assay in all cases: kinetic fluorescence endonuclease assay, purified enzyme
Format in all cases: biochemical
[1] = target: T1, apurinic/apyrimidinic endonuclease 1 (APE1) (Homo sapiens, UniProt P27695)
[2] = target: R177A APE1 (Homo sapiens, UniProt P27695, R177A)
[3] = target: T1, apurinic/apyrimidinic endonuclease 1 (APE1); remark: listed apart in the source

T1 sequence (P27695 whole entry): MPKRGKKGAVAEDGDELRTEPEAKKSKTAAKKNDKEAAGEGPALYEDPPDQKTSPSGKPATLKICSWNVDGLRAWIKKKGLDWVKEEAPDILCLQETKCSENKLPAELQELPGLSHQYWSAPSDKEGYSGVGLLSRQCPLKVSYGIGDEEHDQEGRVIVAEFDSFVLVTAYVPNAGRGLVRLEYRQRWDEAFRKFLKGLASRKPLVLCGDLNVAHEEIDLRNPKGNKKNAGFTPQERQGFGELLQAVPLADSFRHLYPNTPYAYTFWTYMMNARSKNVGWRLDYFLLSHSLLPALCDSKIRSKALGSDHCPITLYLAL
R177A APE1, sequence (P27695 whole entry R177A): as the sequence (P27695 whole entry) above, with R177A counted along it

IC50 [1] | EC50 [2] | EC50 [3] | Structure (SMILES)
65000 nM |  |  | O=C(NCCO)c1cccnc1 [N-(2-hydroxyethyl)nicotinamide]
 | 2200 nM | 820 nM | O=C(NCCO[N+](=O)[O-])c1cccnc1 [nicorandil]
